# Key:
# [1] = target: T1, Glucagon-like peptide 1 receptor (Homo sapiens, UniProt P43220); assay: Agonist activity at human GLP-1R expressed in HEK293 cells assessed as cAMP accumulation incubated for 30 mins by LANCE ultra cAMP assay; format: functional, cell-based
# [2] = Half-life in male rat at 1 mg/kg, iv; format: ADME, organism-based; details: in vivo
# [3] = Oral bioavailability in male rat at 5 mg/kg; format: ADME, organism-based; details: in vivo
# [4] = target: T1, Glucagon-like peptide 1 receptor; assay: Binding affinity to human GLP-1R assessed as association rate constant by SPR analysis; details: filed as agonist
# [5] = target: T1, Glucagon-like peptide 1 receptor; assay: Partial agonist activity at LgBit-tagged GLP-1R (unknown origin) transfected in HEK293 cells co-transfected with Smbit-tagged beta-arrestin-1 assessed as beta-arrestin recruitment incubated for 5 mins by envision microplate reader analysis; format: functional, cell-based
# [6] = target: T1, Glucagon-like peptide 1 receptor; assay: Partial agonist activity at LgBit-tagged GLP-1R (unknown origin) transfected in HEK293 cells co-transfected with Smbit-tagged beta-arrestin-1 assessed as beta-arrestin recruitment by measuring maximal efficacy incubated for 5 mins by envision microplate reader analysis relative to control; format: functional, cell-based
# [7] = Cmax in male ICR mouse at 2 mg/kg, iv measured after 24 hrs by LC-MS/MS analysis; format: ADME, organism-based; details: in vivo
# [8] = AUC (0 to t) in male ICR mouse at 2 mg/kg, iv measured after 24 hrs by LC-MS/MS analysis; format: ADME, organism-based; details: in vivo
# [9] = Half-life in male ICR mouse at 2 mg/kg, iv measured after 24 hrs by LC-MS/MS analysis; format: ADME, organism-based; details: in vivo
# [10] = MRT (0 to t) in male ICR mouse at 2 mg/kg, iv measured after 24 hrs by LC-MS/MS analysis; format: ADME, organism-based; details: in vivo
# [11] = Apparent volume of distribution in male ICR mouse at 2 mg/kg, iv measured after 24 hrs by LC-MS/MS analysis; format: ADME, organism-based; details: in vivo, read-out: Vz
# [12] = Clearance in male ICR mouse at 2 mg/kg, iv measured after 24 hrs by LC-MS/MS analysis; format: ADME, organism-based; details: in vivo
# [13] = Cmax in male ICR mouse at 10 mg/kg, po measured after 24 hrs by LC-MS/MS analysis; format: ADME, organism-based; details: in vivo
# [14] = Tmax in male ICR mouse at 10 mg/kg, po measured after 24 hrs by LC-MS/MS analysis; format: ADME, organism-based; details: in vivo
# [15] = AUC (0 to t) in male ICR mouse at 10 mg/kg, po measured after 24 hrs by LC-MS/MS analysis; format: ADME, organism-based; details: in vivo
# [16] = Half-life in male ICR mouse at 10 mg/kg, po measured after 24 hrs by LC-MS/MS analysis; format: ADME, organism-based; details: in vivo
# [17] = MRT (0 to t) in male ICR mouse at 10 mg/kg, po measured after 24 hrs by LC-MS/MS analysis; format: ADME, organism-based; details: in vivo
# [18] = Oral bioavailability in male ICR mouse at 10 mg/kg measured after 24 hrs by LC-MS/MS analysis; format: ADME, organism-based; details: in vivo
# T1 sequence (P43220 whole entry): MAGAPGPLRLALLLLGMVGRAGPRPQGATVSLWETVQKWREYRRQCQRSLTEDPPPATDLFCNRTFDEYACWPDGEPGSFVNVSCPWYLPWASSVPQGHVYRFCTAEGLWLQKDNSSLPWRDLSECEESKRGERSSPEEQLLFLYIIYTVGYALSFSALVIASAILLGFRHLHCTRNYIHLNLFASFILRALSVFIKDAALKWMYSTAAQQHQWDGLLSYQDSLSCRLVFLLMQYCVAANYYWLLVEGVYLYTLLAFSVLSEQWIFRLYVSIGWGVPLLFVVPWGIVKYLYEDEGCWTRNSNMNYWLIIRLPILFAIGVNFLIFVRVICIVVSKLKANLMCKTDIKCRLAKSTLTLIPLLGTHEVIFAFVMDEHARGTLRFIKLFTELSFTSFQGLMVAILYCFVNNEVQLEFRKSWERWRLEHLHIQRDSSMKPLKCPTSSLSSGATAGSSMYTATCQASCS
molecule,measurement,setting,value
CC(C)[C@H](NCc1nc2ccc(C(=O)O)cc2n1C[C@@H]1CCO1)C(=O)Nc1cccc([Se]Cc2ccc(C#N)cc2F)n1,EC50,[1],> 200 µM
N#Cc1ccc(C[Se]c2cccc(C3CCN(Cc4nc5ccc(C(=O)O)cc5n4C[C@@H]4CCO4)CC3)n2)c(F)c1,half-life,[2],0.47 h
same,bioavailability,[3],23.4%
SEMAGLUTIDE,Ka,[4],7.94 10^5/M.s
COc1cc(C(F)(F)F)ccc1C[Se]c1cccc(N2C=NN(Cc3nc4c(F)cc(C(=O)O)cc4n3C[C@@H]3CCO3)CC2)n1,EC50,[5],> 200 µM
same,Emax,[6],28%
same,Cmax,[7],16500 ng/mL
same,AUC(0-t) at 24 h,[8],3720 ng·h/mL
same,half-life,[9],5.71 h
same,MRT last at 24 h,[10],0.39 h
same,Vd,[11],4.27 L/kg
same,clearance,[12],9.05 mL/min/kg
same,Cmax,[13],283 ng/mL
same,Tmax,[14],0.42 h
same,AUC(0-t) at 24 h,[15],582 ng·h/mL
same,half-life,[16],6.06 h
same,MRT last at 24 h,[17],3.21 h
same,bioavailability,[18],3.2%
